From the supplement of paper PMC10307832

What was measured:
Experiment in all cases: relative viability (nuclei count vs DMSO), 5 days (fraction); higher = more cells survive
BAY61-3606 + OSI-027 = compound: COC1=C(C=C(C=C1)C2=CC3=NC=CN3C(=N2)NC4=C(C=CC=N4)C(=O)N)OC [BAY61-3606] + COc1cccc2cc(-c3nc([C@H]4CC[C@H](C(=O)O)CC4)n4ncnc(N)c34)[nH]c12 [OSI-027] (partner 0.5 µM)
Procedure, shortened: (§1)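 Relative viability was taken as the ratio of nuclei in treated wells to nuclei in vehicle wells. Lung cancer cell lines in 1536-well plates received compounds by pin tool one day after seeding, either one drug alone or a fixed anchor-drug dose plus five library-drug doses (not always all listed) in √10 steps. Nuclei were counted on 4× images after 5 days of treatment, and values are medians of duplicate plates.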

BAY61-3606 + Vorinostat = compound: COC1=C(C=C(C=C1)C2=CC3=NC=CN3C(=N2)NC4=C(C=CC=N4)C(=O)N)OC [BAY61-3606] + O=C(CCCCCCC(=O)Nc1ccccc1)NO [Vorinostat] (partner 1 µM)
Procedure, shortened: as §1

Doxorubicin + Navitoclax = compound: COc1cccc2c1C(=O)c1c(O)c3c(c(O)c1C2=O)C[C@@](O)(C(=O)CO)C[C@@H]3O[C@H]1C[C@H](N)[C@H](O)[C@H](C)O1 [Doxorubicin] + CC1(C)CCC(c2ccc(Cl)cc2)=C(CN2CCN(c3ccc(C(=O)NS(=O)(=O)c4ccc(N[C@H](CCN5CCOCC5)CSc5ccccc5)c(S(=O)(=O)C(F)(F)F)c4)cc3)CC2)C1 [Navitoclax] (partner 0.5 µM)
Procedure, shortened: as §1

Doxorubicin + Linsitinib = compound: COc1cccc2c1C(=O)c1c(O)c3c(c(O)c1C2=O)C[C@@](O)(C(=O)CO)C[C@@H]3O[C@H]1C[C@H](N)[C@H](O)[C@H](C)O1 [Doxorubicin] + C[C@]1(O)C[C@@H](c2nc(-c3ccc4ccc(-c5ccccc5)nc4c3)c3c(N)nccn32)C1 [Linsitinib] (partner 1 µM)
Procedure, shortened: as §1

Cell Line	relative viability (BAY61-3606 + OSI-027; first compound 0.02 µM)	relative viability (BAY61-3606 + OSI-027; first compound 0.06325 µM)	relative viability (BAY61-3606 + OSI-027; first compound 0.2 µM)	relative viability (BAY61-3606 + OSI-027; first compound 0.6325 µM)	relative viability (BAY61-3606 + OSI-027; first compound 2 µM)	relative viability (BAY61-3606 + Vorinostat; first compound 0.02 µM)	relative viability (BAY61-3606 + Vorinostat; first compound 0.06325 µM)	relative viability (BAY61-3606 + Vorinostat; first compound 0.2 µM)	relative viability (BAY61-3606 + Vorinostat; first compound 0.6325 µM)	relative viability (BAY61-3606 + Vorinostat; first compound 2 µM)	relative viability (Doxorubicin + Navitoclax; first compound 0.001 µM)	relative viability (Doxorubicin + Navitoclax; first compound 0.003162 µM)	relative viability (Doxorubicin + Navitoclax; first compound 0.01 µM)	relative viability (Doxorubicin + Navitoclax; first compound 0.03162 µM)	relative viability (Doxorubicin + Navitoclax; first compound 0.1 µM)	relative viability (Doxorubicin + Linsitinib; first compound 0.001 µM)	relative viability (Doxorubicin + Linsitinib; first compound 0.003162 µM)	relative viability (Doxorubicin + Linsitinib; first compound 0.01 µM)	relative viability (Doxorubicin + Linsitinib; first compound 0.03162 µM)	relative viability (Doxorubicin + Linsitinib; first compound 0.1 µM)
NCI-H2085	0.868	0.901	0.711	0.769	0.53	0.885	0.766	0.796	0.839	0.811	1.28	1.24	1.09	0.882	1.01	1.03	0.927	0.815	0.716	0.82
NCI-H2087	0.47	0.577	0.557	0.555	0.417	0.673	1.03	0.727	0.359	0.647	0.973	1.05	1.05	0.967	0.918	0.789	0.912	1.14	0.892	0.98
NCI-H2126	0.729	0.616	0.751	0.695	0.655	0.799	0.761	0.733	0.747	0.619	0.853	0.826	0.864	0.884	0.928	0.704	0.748	0.739	0.712	0.718
NCI-H2228	0.885	0.451	0.594	0.495	0.293	0.713	0.594	0.663	0.634	0.571	1.24	0.752	0.876	0.552	0.321	0.825	0.615	0.634	0.178	0.311
NCI-H2347	0.492	0.365	0.457	0.487	0.281	0.721	0.65	0.598	0.575	0.597	0.628	0.768	0.77	0.71	0.85	0.978	0.923	0.923	0.889	0.959
NCI-H2405	0.676	0.63	0.64	0.756	0.65	1.17	1.02	1.15	0.968	0.824	–	0.779	0.851	0.639	0.493	–	0.938	0.887	0.707	0.519
NCI-H3122	1.02	0.922	0.891	1.27	0.847	1.01	1.03	0.893	1.05	0.95	1.05	1.01	0.973	1.02	1.02	1.05	0.995	1.06	1.06	1
PC-3 [JPC-3]	–	0.756	0.711	0.787	0.704	0.849	0.668	1.04	0.834	0.789	0.746	0.79	0.703	0.802	0.819	1.01	0.992	0.94	0.907	0.901
PC-14	0.786	0.787	0.746	1.24	0.522	0.808	0.799	0.845	0.87	0.667	0.997	1.1	0.973	1.01	0.945	0.924	0.982	0.959	0.922	0.948
RERF-LC-KJ	0.605	0.533	0.573	0.621	0.379	0.701	0.684	0.704	0.881	0.614	1.05	0.765	1.12	–	1.05	0.816	0.858	0.873	0.943	0.887
SK-LU-1	0.357	0.366	0.317	0.285	0.227	0.695	0.83	0.755	0.679	0.504	0.811	0.631	0.806	0.301	0.218	1.1	1.23	0.891	0.435	0.43
SK-MES-1	0.604	0.674	0.56	0.706	0.405	1.14	1.13	1.05	1.11	0.86	1.28	0.745	1.09	1.01	0.76	0.952	1.07	1.07	1.05	0.936
SW 1573	0.613	0.552	0.51	0.63	0.325	0.817	0.643	0.578	0.815	0.344	0.849	1.09	1.04	0.526	0.196	0.669	0.831	0.858	0.586	0.529
